The experiment deals with monosodium urate (MSU) crystal-induced air pouch inflammation. Briefly: Air Pouch Model 4: MSU crystal air pouch, rodent model of gout. To be noted: 30 min before MSU; for Average Exudate Volume, Mean / Average Plasma Extravasation, OD620 nm, Mean / Total WBC in Sample, Mean / WBC in exudate, Mean: 4 h after MSU. The class given is in vivo, male Sprague-Dawley rats. The procedure: The objective of this study was to evaluate the anti-inflammatory potency of Tranilast. This evaluation was carried out in male Sprague-Dawley rats in a rodent model of gout. The animals were injected subcutaneously with 20 ml of sterile air, followed three days later by a supplemental injection with 20 ml of sterile air. Six days after the initial sterile air injection, the rats were injected intravenously with Evan's Blue and pretreated for thirty minutes with oral administration of 3 mg/kg, 10 mg/kg, 30 mg/kg, 100 mg/kg, or 300 mg/kg tranilast. After the pretreatment period, the rats were injected with 150 mg of monosodium urate (MSU) crystals (10 mg/ml) into the air pouch. Four hours later, the air pouch was injected with 5 ml heparinized saline and the entire contents of the air pouch removed, recording the total volume. The air pouch contents were evaluated for plasma extravasation and total white blood cell (WBC) count.
On day 0 the rats were anesthetized in a biological cabinet, the nape of the neck was cleansed with 70% isopropanol followed by iodine tincture (VEDCO). Twenty ml sterile (0.22 μm, Millipore, Cat. SLGSV255F) air was injected subcutaneously using a 23 G×2 inch needle fixed to a 20 ml syringe. The rats were returned to routine housing. No adverse reactions were observed.
On day 3 the rats were anesthetized in a biological cabinet, the nape of the neck was cleansed with 70% isopropanol followed by iodine tincture (VEDCO). Twenty ml sterile (0.22 μm, Fisher Scientific, Cat. 09-720-3) air was injected subcutaneously using a 23 G×2 inch needle fixed to a 20 ml syringe. The rats were returned to routine housing. No adverse reactions were observed.
On day 6 the rats were weighed (Mettler, Model PE3000, SN: F69474) and injected intravenously injected with 2 ml/kg Evans Blue. The animals were dosed orally with 0.06 ml/kg, 0.2 ml/kg, 0.6 ml/kg, 2 ml/kg, or 6 ml/kg tranilast or 6 ml/kg vehicle.
Thirty minutes after test material administration, the rats were anesthetized and six groups (2-7) were injected into the air pouch with 15 ml MSU using a 19 G×2 inch needle fitted to a 20 ml syringe. Group 1 was injected with 15 ml saline. The rats were returned to their cages, no adverse affects were observed.
Four hours after MSU/saline injection, the rats were anesthetized and 5 ml 10 U/ml heparinized saline was injected into the air pouch. The air pouch was gently massaged, the contents immediately removed using a 14 G×1 inch needle fitted to a 6 ml syringe, and the exudate volume recorded. An aliquot of the exudate was transferred to heparin-treated microtainer tubes (Becton Dickinson, Cat. 365958) for white blood cell (WBC) counting. The remainder of the exudate was centrifuged (Hermle Labrotechnik, Model Z200A, SN: 44060036), the supernatants removed and evaluated at OD620nm (Spectronic Unicam, Model 4000 1/4, SN: 3SGD003006) for plasma extravasation.

For the molecule `COc1ccc(/C=C/C(=O)Nc2ccccc2C(=O)O)cc1OC` [Tranilast, 2-[[3-(3,4-dimethoxyphenyl)-1-oxo-2-propenyl]amino]benzoic acid], the “Average Exudate Volume, Mean” value reads like this: (3 mg/kg oral) 9.6 mL; (10 mg/kg oral) 7.7 mL; (30 mg/kg oral) 7.1 mL; (100 mg/kg oral) 5.1 mL; (300 mg/kg oral) 3.9 mL. Further, the “Average Plasma Extravasation, OD620 nm, Mean” value by setting is: (3 mg/kg oral) 1.940; (10 mg/kg oral) 1.662; (30 mg/kg oral) 1.089; (100 mg/kg oral) 1.180; (300 mg/kg oral) 0.613. In addition, the “Total WBC in Sample, Mean” value (3 mg/kg oral) is 368228000; the “Total WBC in Sample, Mean” value (10 mg/kg oral) was 471436000; the “Total WBC in Sample, Mean” value (30 mg/kg oral) is on record as 286935000; the “Total WBC in Sample, Mean” value (100 mg/kg oral) is given as 159916000; the “Total WBC in Sample, Mean” value (300 mg/kg oral) turned out to be 77451111. The “WBC in exudate, Mean” value (3 mg/kg oral) amounted to 38510000 cells/ml; the “WBC in exudate, Mean” value (10 mg/kg oral) is listed as 61200000 cells/ml; the “WBC in exudate, Mean” value (30 mg/kg oral) was determined as 39650000 cells/ml; the “WBC in exudate, Mean” value (100 mg/kg oral) is listed as 31740000 cells/ml; the “WBC in exudate, Mean” value (300 mg/kg oral) was 19466667 cells/ml. For the same molecule, the “inhibition of plasma extravasation” value (highest dose 300 mg/kg oral) amounted to 67%. Further, the “inhibition of white blood cell infiltration” value (highest dose 300 mg/kg oral) is recorded as 80%. For the same molecule, the “effect on MSU-induced parameters (plasma extravasation, leukocyte infiltration)” value (oral 3-300 mg/kg) is given as “dose-dependent inhibition”.

These data come from patent publication US20100160351A1, “PHARMACEUTICAL COMPOSITIONS AND METHODS FOR TREATING HYPERURICEMIA AND RELATED DISORDERS” (NUON THERAPEUTICS, INC., priority 2008, published 2010).
